Source: ChEMBL document CHEMBL5625242, “Discovery of brain permeable 2-Azabicyclo[2.2.2]octane sulfonamides as a novel class of presenilin-1 selective γ-secretase inhibitors” (Eur J Med Chem, 2023)

Legend:
[1] = Inhibition of human PSEN1/APH1B expressed in MEF cells with Psen1/2 double knockout/Aph1ABC triple knockout by ELISA; format: cell-based
Homo sapiens [2] = species on record: Homo sapiens; assay: Selectivity ratio of IC50 for human PSEN2/APH1A expressed in MEF cells with Psen1/2 double knockout/Aph1ABC triple knockout to IC50 for human PSEN1/APH1B expressed in MEF cells with Psen1/2 double knockout/Aph1ABC triple knockout; format: cell-based
[3] = Inhibition of human PSEN1/APH1A expressed in MEF cells with Psen1/2 double knockout/Aph1ABC triple knockout by ELISA; format: cell-based
[4] = Inhibition of human PSEN2/APH1A expressed in MEF cells with Psen1/2 double knockout/Aph1ABC triple knockout by ELISA; format: cell-based
[5] = Inhibition of human PSEN2/APH1B expressed in MEF cells with Psen1/2 double knockout/Aph1ABC triple knockout by ELISA; format: cell-based
Homo sapiens [6] = species on record: Homo sapiens; assay: Selectivity ratio of IC50 for human PSEN2/APH1B expressed in MEF cells with Psen1/2 double knockout/Aph1ABC triple knockout to IC50 for human PSEN1/APH1B expressed in MEF cells with Psen1/2 double knockout/Aph1ABC triple knockout; format: cell-based
Homo sapiens [7] = species on record: Homo sapiens; assay: Selectivity ratio of IC50 for human PSEN1/APH1A expressed in MEF cells with Psen1/2 double knockout/Aph1ABC triple knockout to IC50 for human PSEN1/APH1B expressed in MEF cells with Psen1/2 double knockout/Aph1ABC triple knockout; format: cell-based
[8] = Metabolic stability in mouse liver microsomes assessed as intrinsic clearance; format: ADME, Microsome; conditions: liver microsomes, read-out: CLH
[9] = Metabolic stability in human liver microsomes assessed as intrinsic clearance; format: ADME, Microsome; conditions: liver microsomes, read-out: CLH
MEF = assay: Inhibition of human PSEN1/APH1B expressed in MEF cells with Psen1/2 double knockout/Aph1ABC triple knockout at 10 uM by ELISA relative to control; format: cell-based

SMILES | IC50 [1] [nM] | Ratio IC50 (Homo sapiens [2]) | IC50 [3] [nM] | IC50 [4] [nM] | IC50 [5] [nM] | Ratio IC50 (Homo sapiens [6]) | Ratio IC50 (Homo sapiens [7]) | microsomal CLint [8] [µL/min/mg] | microsomal CLint [9] [µL/min/mg] | inhibition (MEF) [%]
O=C1C[C@@H]2CC[C@H]1[C@@H](c1cc(F)ccc1F)N2S(=O)(=O)c1ccc(Cl)cc1 (racemic) | 426 | 25 | 1020 | > 10000 | > 10000 | 25 | – | – | – | –
O=C1NCCCC[C@H]1N(Cc1ccc(Br)cc1)S(=O)(=O)c1ccc(Cl)cc1 | 24.5 | > 60 | 38.3 | 4110 | 1700 | > 60 | – | – | – | –
O=C1C[C@@H]2CC[C@H]1[C@@H](c1ccc(C(F)(F)F)cc1)N2S(=O)(=O)c1ccc(Cl)cc1 (racemic) | 34 | > 150 | 316 | > 10000 | > 5000 | > 150 | 9 | – | – | –
N#Cc1ccc([C@@H]2[C@@H]3CC[C@@H](C[C@@H]3O)N2S(=O)(=O)c2ccc(Cl)cc2)cn1 (racemic) | 12 | – | 67 | 741 | 2180 | – | – | 118 | 111 | –
O=S(=O)(c1ccc(Cl)cc1)N1[C@H]2CC[C@@H]([C@H]1c1ccc(C(F)(F)F)cc1)[C@@H](O)C2 (racemic) | 7.2 | – | 41.7 | 2820 | 2450 | – | – | > 347 | > 347 | –
O=S(=O)(c1ccc(Cl)cc1)N1[C@H]2CC[C@@H]([C@H]1c1ccccc1Cl)[C@@H](O)C2 (racemic) | 3 | 40 | 12 | 131 | 214 | 100 | 2 | – | – | –
CCOC(=O)Nc1ccc([C@@H]2[C@@H]3CC[C@@H](CC3=O)N2S(=O)(=O)c2ccc(Cl)cc2)cc1 (racemic) | 288 | > 20 | 3240 | 6170 | 6460 | > 20 | > 11 | – | – | –
O=C1C[C@@H]2CC[C@H]1[C@H](c1cc(F)ccc1F)N2S(=O)(=O)c1ccc(Cl)cc1 | – | – | – | – | – | – | – | – | – | 45
O=C1C[C@@H]2CC[C@H]1[C@@H](c1cc(F)ccc1F)N2S(=O)(=O)c1ccc(Cl)s1 (racemic) | 512 | – | 7080 | > 10000 | > 10000 | – | 13 | – | – | –
